# Data as given in ChEMBL document CHEMBL5223108, “Aiming to improve binding of porphyrin diphenyl guanidinium conjugates to guanine-quadruplexes: When size matters” (Bioorg Med Chem Lett, 2022).
# Calls of active or inactive are those of the source. The rule behind the calls is not given here.
# Assays:
# Quadruplex DNA [1] = assay: Binding affinity to 22AG_Na G4 quadruplex DNA (unknown origin) assessed as change in melting temperature at 1:2 G4:ligand ratio by UV analysis (reference value: 55.9 degreeC); format: nucleic-acid assay
# Quadruplex DNA [2] = assay: Binding affinity to c-KIT1 G4 quadruplex DNA (unknown origin) assessed as change in melting temperature at 1:2 G4:ligand ratio by UV analysis (reference value: 66.5 degreeC); format: nucleic-acid assay
# Quadruplex DNA [3] = assay: Binding affinity to 22AG_Na G4 quadruplex DNA (unknown origin) by CD spectroscopy analysis; format: nucleic-acid assay
# Salmonidae = assay: Binding affinity to salmon testes […] DNA assessed as change in melting temperature at 1:2 […] ratio by UV analysis (reference value: 66.6 degreeC)
# Quadruplex DNA [4] = assay: Binding affinity to 23TA G4 quadruplex DNA (unknown origin) assessed as change in melting temperature at 1:2 G4:ligand ratio by UV analysis (reference value: 59.5 degreeC); format: nucleic-acid assay
# Quadruplex DNA [5] = assay: Binding affinity to c-KIT2 G4 quadruplex DNA (unknown origin) assessed as change in melting temperature at 1:2 G4:ligand ratio by UV analysis (reference value: 59.1 degreeC); format: nucleic-acid assay
# Quadruplex DNA [6] = assay: Binding affinity to c-KIT1 G4 quadruplex DNA (unknown origin) by CD spectroscopy analysis; format: nucleic-acid assay
# Quadruplex DNA [7] = assay: Binding affinity to 22AG_K G4 quadruplex DNA (unknown origin) assessed as change in melting temperature at 1:2 G4:ligand ratio by UV analysis (reference value: 60.1 degreeC); format: nucleic-acid assay
# Quadruplex DNA [8] = assay: Binding affinity to KRAS G4 quadruplex DNA (unknown origin) assessed as change in melting temperature at 1:2 G4:ligand ratio by UV analysis (reference value: 48.7 degreeC); format: nucleic-acid assay
# Quadruplex DNA [9] = assay: Binding affinity to human c-KIT1 G4 quadruplex DNA assessed as change in melting temperature at 10 uM by UV analysis; format: nucleic-acid assay
# Quadruplex DNA [10] = assay: Binding affinity to human 22AG_Na G4 quadruplex DNA assessed as change in melting temperature at 10 uM by UV analysis; format: nucleic-acid assay
# Quadruplex DNA [11] = assay: Binding affinity to human c-KIT2 G4 quadruplex DNA assessed as change in melting temperature at 10 uM by UV analysis; format: nucleic-acid assay
ΔTm (Quadruplex DNA [1]) [°C],ΔTm (Quadruplex DNA [2]) [°C],Activity (Quadruplex DNA [3]),ΔTm (Salmonidae) [°C],ΔTm (Quadruplex DNA [4]) [°C],ΔTm (Quadruplex DNA [5]) [°C],Activity (Quadruplex DNA [6]),ΔTm (Quadruplex DNA [7]) [°C],ΔTm (Quadruplex DNA [8]) [°C],ΔTm (Quadruplex DNA [9]) [°C],ΔTm (Quadruplex DNA [10]) [°C],ΔTm (Quadruplex DNA [11]) [°C],Structure (SMILES)
10.2,-7.84,inactive,0.02,2.42,-1.49,inactive,-1.05,2.91,,,,N=C(N)Nc1ccc(S(=O)(=O)c2ccc(NC(=N)NC(=O)Nc3ccc(-c4c5nc(c(-c6ccccc6)c6ccc([nH]6)c(-c6ccccc6)c6nc(c(-c7ccccc7)c7ccc4[nH]7)C=C6)C=C5)cc3)cc2)cc1
,,,,,,,,,2.2,-2.7,> 20,N=C(N)Nc1ccc(Oc2ccc(NC(=N)NC(=O)Nc3ccc(-c4c5nc(c(-c6ccccc6)c6ccc([nH]6)c(-c6ccccc6)c6nc(c(-c7ccccc7)c7ccc4[nH]7)C=C6)C=C5)cc3)cc2)cc1
,,,,,,,,,1,-4.9,> 20,N=C(N)Nc1ccc(Sc2ccc(NC(=N)NC(=O)Nc3ccc(-c4c5nc(c(-c6ccccc6)c6ccc([nH]6)c(-c6ccccc6)c6nc(c(-c7ccccc7)c7ccc4[nH]7)C=C6)C=C5)cc3)cc2)cc1
